Results published in article PMC10804407, “Rombocin, a Short Stable Natural Nisin Variant, Displays Selective Antimicrobial Activity against Listeria monocytogenes and Employs a Dual Mode of Action to Kill Target Bacterial Strains” (ACS Synthetic Biology, 2024).
Values after ≈ are worked out from the molar mass of the structure shown.

How the values were obtained:
[1] = pH stability by residual antimicrobial activity; type: physicochemical; conditions: residual antimicrobial activity vs L. lactis 1363, agar well, triplicate
Description: (§1) To investigate the impact of proteolytic enzymes, pH, and temperature on the antimicrobial activity, a representative strain of L. lactis 1363 was utilized. For the proteolytic enzyme assay, 40 μL of peptide (1 mg/mL) was incubated with or without final concentrations of 1 mg/mL proteolytic enzymes at room temperature for 3 h, followed by an activity test in the agar well. To determine pH stability, the pH was adjusted to 2, 4, 7, and 10 using 1 M HCl or NaOH. The temperature stability was assessed by incubating the peptide at 22, 50, 70, and 90 °C for a specified duration. All experiments were performed in triplicate.
(§2) Overnight cultures of the test strains were inoculated at a final concentration of 0.1% (v/v) into melted LB agar at 45 °C and then poured onto plates. After solidification, 8 mm wells were created and filled with 40 μL of the lantibiotic solution (1 mg/mL). The lantibiotics were activated by adding 5 μL of NisP directly to the well. The plates were then incubated overnight at 30 °C, and the zone of inhibition was measured. Zone diameters were calculated by subtracting the area of the well (πr^2) from the area of the zone (πr^2) and reported in millimeters. To determine the peptide concentration, purified and lyophilized peptides were resuspended in 0.05% aqueous acetic acid solution and quantified by HPLC following the protocol described by Schmitt et al.[44] All experiments were performed in triplicate.

[2] = Spot-on-lawn assay, peptide-lipid II complex formation; type: binding, Lactococcus lactis; conditions: L. lactis MG1363, purified lipid II 300 μM, 2 μL at edge of halo, overnight 30 °C
Description: To evaluate the binding of peptide and lipid II or lipoteichoic acid (LTA), an overnight cultured L. lactis MG1363 was added to 0.8% GM17 (w/v, temperature 45 °C) at a final concentration of 0.1% (v/v), and then, the mixture was poured onto 10 mL plates. The binding of peptide and lipid II or LTA was further evaluated by spotting of purified lipid II (300 μM, 2 μL) or LTA (1 mg/mL, 2 μL) to the edge of the inhibition halo of antibiotics. Briefly, antimicrobials were loaded to the agar plate. After the antimicrobial solution drops had dried, lipid II or LTA was spotted to the edge of inhibition halo of antimicrobials. The plates were then incubated overnight at 30 °C after the drops had dried.

[3] = Growth curve-based lipid II/LTA binding assay; type: cell-based, Lactococcus lactis; conditions: L. lactis MG1363, 5 × MIC peptide, 2 µl lipid II, 6 hours, three replicates
Description: Screening the antibacterial activity of peptides by spot-on-lawn assay
To prepare the plates, an overnight culture of the strains was added to 0.8% LB agar or GM17agar (wt/vol) at 45 ℃ and mixed to a final concentration of 0.1% (vol/vol) before being poured onto the plates (10 ml each). Next, 5 µl of the precursor peptide and 1 µl of 1 mg/mL NisP were dropped onto the plates and left to dry before incubation. The plates were then incubated overnight at 37°C, except for L. lactis, which was incubated at 30°C.
Evaluation of (methyl)lanthionine formation
16 μL of phosphate-buffered saline (pH 7.4) was added to the samples followed by treatment with 2 μL of 5 mg/mL tris[2-carboxyethyl]phosphine for 30 min at room temperature. Next, 4.5 μL of 25 mg/mL N-ethylmaleimide was added to the samples, which were then incubated at room temperature for 2 h.
Subsequently, the samples were desalted using a C18 ZipTip (Millipore) according to the manufacturer’s instructions and subjected to MALDI-TOF MS analysis.
Growth curve and lipid II/LTA binding assay
Overnight cultures of L. lactis MG1363 were diluted to an OD 600 of 0.05 and added to a 96-well plate, which was incubated at 30°C. […] The growth curve was recorded over the following 6 hours using a microplate spectrophotometer under the same conditions, with three replicates used for each treatment.

[4] = tested on: L. lactis; test: Potassium ion efflux assay (PBFI probe); type: cell-based, Lactococcus lactis; conditions: 5× MIC, 10 mM HEPES pH 7.2 with 0.5% glucose, 10 μM PBFI
Description: To perform the K^+ release assay, we used the K^+-specific fluorescent probe PBFI. L. lactis was cultured in GM17 until the OD600 reached 0.6, after which the cells were harvested (5000g, 5 min) and washed twice with 10 mM HEPES (pH 7.2) with 0.5% glucose. The cells were then resuspended in the same buffer containing 10 μM PBFI. Data were analyzed using a Varioskan LUX Multimode Microplate Reader; cells were excited at 346 nm, and the fluorescence emission was measured at 505 nm to establish a baseline signal before the addition of 5-fold MIC antibiotics, after which data were collected. Nisin was used as a positive control.

[5] = tested on: Bacillus cereus CH-85; type: cell-based; conditions: CH-85
Description: (§3) Each experiment was performed in triplicate.

[6] = tested on: L. lactis; test: Fluorescence microscopy assay of membrane integrity (SYTO 9 / propidium iodide); type: cell-based, Lactococcus lactis; conditions: 5× MIC, 15 min / 20 min (method), room temperature
Description: L. lactis was cultured until it reached an OD600 of 0.8 and then pelleted at 8000g for 5 min and washed three times in 0.7% NaCl. The cell density was normalized to an OD600 of 0.4 in 0.7% NaCl, and a concentration of 5-fold MIC value of each tested antibiotic was added to the cell suspension simultaneously with SYTO 9 and propidium iodide using the LIVE/DEAD Baclight Bacterial Viability Kit (Invitrogen). After incubation at room temperature for 20 min, the compounds were removed by washing the cells with 0.7% NaCl. Finally, the cell suspensions were loaded onto 1.5% agarose pads and analyzed with a DeltaVision Elite microscope (Applied Precision).

[7] = Thermal stability by residual antimicrobial activity; type: physicochemical; conditions: residual antimicrobial activity vs L. lactis 1363, agar well, triplicate
Description: as §1
as §2, with “All experiments were performed in triplicate.” left out

[8] = tested on: E. faecalis LMG16216 (VRE); type: cell-based, Enterococcus faecalis; conditions: LMG16216
Description: as §3

[9] = tested on: L. monocytogenes LK132; type: cell-based, Listeria monocytogenes; conditions: LK132
Description: as §3

[10] = tested on: L. monocytogenes LMG10470; type: cell-based, Listeria monocytogenes; conditions: LMG10470
Description: as §3

[11] = tested on: L. monocytogenes TT82E; type: cell-based, Listeria monocytogenes; conditions: TT82E
Description: as §3

In the case of C=C1NC(=O)[C@H]([C@@H](C)CC)NC(=O)C(NC(=O)C(=CC)NC(=O)[C@@H](N)[C@@H](C)CC)CSC[C@@H](C(=O)NC2C(=O)N[C@@H](C)C(=O)NCC(=O)N[C@H](C(=O)N[C@H](C(=O)NC3C(=O)NCC(=O)N[C@@H](C(C)C)C(=O)N[C@@H]([C@@H](C)CC)C(=O)N[C@@H](CCSC)C(=O)NC(=CC)C(=O)N[C@H](C(=O)N[C@@H](CCSC)C(=O)NC4CSC[C@@H](C(=O)N[C@@H](CCCCN)C(=O)O)NC(=O)CNC(=O)[C@H](CC(N)=O)NC4=O)CSC3C)[C@@H](C)CC)CSC2C)NC(=O)[C@H](CC(C)C)NC1=O (some centres unmarked) [rombocin A], the retained activity ([1]; neutral pH, after 8 h of incubation) was 70%, the reduction in activity ([1]; pH 2, 4, 7, and 10 (adjusted with 1 M HCl or NaOH), up to 5.5 h) was “less than 20%” and the retained activity ([1]; pH 2 and 4, after 8 h of incubation) was “more than 80%”. The “binding to lipid II (effect of spotted lipid II on the inhibition halo)” value [2] was “reduction in the antimicrobial activity against L. lactis”, the “effect of added lipid II on activity (growth curves)” value [3] was “reduced its activity” and the “release of intracellular potassium ions (PBFI fluorescence)” value [4] was “did not have this effect”. For the same molecule, the MIC [5] was 25 µg/mL (≈ 10.5 µM), the “membrane integrity (SYTO 9 / propidium iodide fluorescence)” value [6] was “membrane disruption similar to nisin” and the “incubation time to complete loss of activity” value ([7]; 90 °C) was 7 h. For the same molecule, the reduction in activity ([7]; temperatures between 22 and 50 °C, up to 10 h) was “less than 30%”, the MIC [8] was 50 µg/mL (≈ 21 µM) and the MIC [9] was 25 µg/mL (≈ 10.5 µM). For the same molecule, the MIC [10] was 25 µg/mL (≈ 10.5 µM) and the MIC [11] was 12,5 μg/mL.
